For test [1], the target named is T1, human AspH (His6-AspH315-758) (Homo sapiens, UniProt Q12797).
T1 construct: N-Terminally His6-tagged human AspH315-758 (His6-AspH315-758) was produced in Escherichia coli BL21 (DE3); made in house; host or cells: Escherichia coli BL21 (DE3), pET-28a(+) vector
T1 sequence (Q12797 315-758): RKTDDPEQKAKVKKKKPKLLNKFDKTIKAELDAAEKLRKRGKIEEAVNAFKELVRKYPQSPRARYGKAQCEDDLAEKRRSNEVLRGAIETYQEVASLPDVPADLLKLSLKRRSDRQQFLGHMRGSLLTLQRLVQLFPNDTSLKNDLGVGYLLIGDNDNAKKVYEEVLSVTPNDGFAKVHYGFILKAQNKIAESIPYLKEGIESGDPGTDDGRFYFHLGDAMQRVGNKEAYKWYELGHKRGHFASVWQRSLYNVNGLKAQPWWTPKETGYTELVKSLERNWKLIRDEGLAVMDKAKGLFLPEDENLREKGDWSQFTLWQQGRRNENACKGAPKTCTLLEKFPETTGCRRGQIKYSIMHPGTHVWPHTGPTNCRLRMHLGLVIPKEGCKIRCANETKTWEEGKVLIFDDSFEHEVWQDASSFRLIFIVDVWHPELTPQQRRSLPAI
Also on record: method as in PMID 33069066. Particulars: ref 41a; read-out: IC50 (inhibition of AspH, literature); cited from earlier work.

For test [2], the target named is T1, human AspH (His6-AspH315-758). As to the kind of experiment: AspH steady-state kinetics by SPE-MS turnover assays. It counts as biochemical. Here is the method: Supporting Figure S6. Initial hydroxylation rates of AspH-catalyzed peptide hydroxylations used to
Measurement times were normalized to the first sample injection analyzed after the addition of the Enzyme
(§1) The mass spectrometer parameters were:
(§2) Data were exported into Microsoft
(§3) The standard deviation (SD) of three
(§4) Z’-factors were calculated
9. Determination of kinetic parameters
(§5) in 50 mM HEPES buffer (pH 7.5).

The target is the same in test [3]. As to the kind of experiment: NMR monitoring of AspH-catalyzed oxidative decarboxylation, with final SPE-MS analysis. It counts as biochemical. Here is the method:
2-methylsuccinate and terephthalate, respectively (continues on the following two pages). The AspH- […]
700 NMR machine equipped with a 5mm 1H(13C/15N) inverse cryoprobe. Assay conditions: 10 μM His6-AspH315- […]
iron(II) sulfate hexahydrate (FAS, (NH4)2Fe(SO4)2·6H2O) in 50 mM aqueous Tris-d11 containing 10 %v/v D2O (pH […]
product of the AspH-catalyzed reaction, was determined using SPE-MS (Supporting Information, Section 9) after […]
of the 1H NMR spectrum of commercial succinate in 50 mM aqueous Tris-d11 containing 10 %v/v D2O (pH 7.5, 25° […]
(1 picture or pasted object on this page, not shown here) […]
using a Bruker AVIII 700 NMR machine equipped with a 5mm 1H(13C/15N) inverse cryoprobe. Assay conditions: […]
ammonium iron(II) sulfate hexahydrate (FAS, (NH 4)2Fe(SO4)2·6H2O) in 50 mM aqueous Tris -d11 containing […]
which is the product of the AspH-catalyzed reaction, was determined using SPE-MS (Supporting Information, Section 9) after completion of the NMR experiments. […]
spectrum of synthetic 34 in 50 mM aqueous Tris-d11 containing 10 %v/v D2O (pH 7.5, 25° C); (b) Close-up (3.0-0.9 ppm) of the 1H NMR spectrum of commercial 2,2-dimethylsuccinate (52) in 50 mM aqueous Tris-d11

For test [4] the target is unchanged. Also on record: method as in PMID 32107312. Particulars: cited from earlier work.
Test [5] shares this target. As to the kind of experiment: SPE-MS AspH inhibition assay. Format: biochemical. Particulars: mean ± SD, n = 3. The procedure: 6. Recombinant AspH production and purification
N-Terminally His6-tagged human AspH315-758 (His6-AspH315-758) was produced in Escherichia coli BL21 (DE3) cells using a pET-28a(+) vector and purified by Ni(II)-affinity chromatography (HisTrap HP column, GE Healthcare; 1 mL/min flow rate) and size-exclusion chromatography (HiLoad 26/60 Superdex 75 pg 300 mL column; 1 mL/min) using an ÄKTA pure machine (GE Healthcare) as previously reported.1,4 AspH was >95% pure by SDS-PAGE and MS analysis and had the anticipated mass (calculated for His6-AspH315-758: 54519 Da, found: 54519 Da).1 Purified AspH was stored in 50 mM HEPES buffer (pH 7.5, 150 mM NaCl) at a concentration of 125 μM at -78 °C; fresh aliquots were used for all AspH assays.
7. AspH substrate synthesis
AspH substrates were designed based on the sequence of EGFD1 of human coagulation factor X (hFX amino acids 86-124), which is a reported cellular AspH substrate.2 All substrates were prepared with a C-terminal amide.
The hFX-EGFD186-124-4Ser peptide (hFX amino acids 86-124; Supporting Figure S1c),1 used for crystallography experiments, was synthesized by solid phase peptide synthesis (SPPS) and purified by GL Biochem (Shanghai) Ltd (Shanghai, China). The thioether linked cyclic peptide hFX-CP101-119 (hFX amino acids 101-119; Supporting
Figure S1d), which was used as substrate in AspH SPE-MS assays,4 was synthesized by an intramolecular thioetherification cyclization reaction from the corresponding linear peptide (D-Ala replacing Cys101hFX and Ser replacing Cys112hFX) which was obtained by microwave-assisted solid phase peptide synthesis using the Fmoc-protection strategy as described.4
8. AspH inhibition assays […]
water; ammonium iron(II) sulfate hexahydrate, FAS, (NH 4)2Fe(SO4)2·6H2O: 400 mM in 20 mM HCl diluted to 1 mM in Milli-Q® Ultrapure water) were freshly prepared each day from commercially sourced solids (Sigma […]
(Greiner) in an approximately three-fold and 11-point dilution series (100 μM top concentration) using an ECHO 550 acoustic dispenser (Labcyte). DMSO and 2,4 -PDCA were used as negative and positive controls , respectively .
The final DMSO concentration was kept constant at 0.5%v/v throughout all experiments (using the DMSO backfill option of the acoustic dispenser). Each reaction was performed in technical duplicates in adjacent wells of the assay plates; additionally, assays were performed in three independent technical duplicates on different days using different DMSO inhibitor solutions. […]
dispensed across the inhibitor-containing 384-well assay plates with a multidrop dispenser (ThermoFischer Scientific) at 20°C under an ambient atmosphere. The plates were subsequently centrifuged (1000 rpm, 30 s) and incubated for 15 minutes at 20°C. The Substrate Mixture (25 μL/well), containing 2.0 μM hFX-CP101-119, 200 μM […]
Note: The multidrop dispenser ensured proper mixing of the Enzyme and the Substrate Mixtures which was essential for assay reproducibility. The plates were centrifuged (1000 rpm, 30 s) and af ter incubating for 7 minutes, […]
centrifuged (1000 rpm, 60 s) and analysed by MS.
as §1, §2, §3, §4
9. Determination of kinetic parameters […]
as §5

The test system of test [6] is glutamic oxaloacetic aminotransferase. Also on record: method as in doi:10.1002/1615-4169(200108)343:6/7<692::AID-ADSC692>3.0.CO. The note with it: cited from earlier work.
Another test deals with T2, human AspH (Homo sapiens, UniProt Q12797).
T2 sequence (Q12797 315-758): T1 sequence (Q12797 315-758)
As to the kind of experiment: SPE-MS AspH turnover assay in the absence of 2OG (2OG derivative as cosubstrate).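 Further: percent conversion = hydroxylated cyclic peptide peak area relative to summed substrate plus product areas, taken from +2 charge state ion chromatograms by solid phase extraction MS.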 Particulars: 330 μM 2OG or 2OG derivative, 0.1 μM AspH, 2 μM hFX-CP101-119, 50 μM FAS, t = 15 min.

Setting [7] is: 0.1 μM His6-AspH315–758, 2.0 μM hFX-CP101–119, in the presence of LAA, mean ± SD, n = 3.

Several values for one entry are separate records, joined by “and”; a condition that tells them apart may be missing. Equal values may be shown once. Read-outs that look alike come from different tables or passages of the source.

One may read the IC50 as the concentration that inhibits the measured activity by half.

For `O=C(O)c1ccnc(C(=O)O)c1` [2,4-PDCA, pyridine-2,4-dicarboxylate], the IC50 in test [1] is approximately 0.03 µM.
`O=C(O)CCC(=O)C(=O)O` [2OG, 2-Oxoglutarate, reference compound]: the k cat in test [2] was 0.17 ± 0.03 s⁻¹. Moreover, in test [2] (setting [7]), the K app m was found to be 1.3 ± 0.3 µM and the v app max turned out to be 0.015 ± 0.0009 µM/s. The “time to complete AspH-catalyzed oxidative decarboxylation (NMR)” value in test [3] (10 μM AspH, 150 μM cosubstrate) is not above 5 min. Also, in test [3] (t = 5 min, 10 μM AspH, 150 μM cosubstrate), the “hydroxylation (conversion) of hFX-CP101-119 in the final reaction mixture by SPE-MS” value is more than 95%. In test [4], the “K app m (2OG) in the absence of LAA” value was approximately 0.6 µM and the “v app max (2OG) in the absence of LAA” value was approximately 0.0168 µM/s.
For `O=C(O)C(=O)N[C@H](Cc1ccccc1)C(=O)O` [NOFD, N-oxalyl-D-phenylalanine], the IC50 in test [1] was approximately 15.5 µM.
Regarding `CC(C)(CC(=O)C(=O)O)C(=O)O` [compound 34, 4,4-Dimethyl-2OG], the IC50 in test [5] (50 nM His6-AspH315-758, 1.0 μM hFX-CP101-119, read-out: IC50 (ESI Fig. S4)) was 0.31 ± 0.1 µM; in test [5] (50 nM His6-AspH315–758, 1.0 μM hFX-CP101–119, 3 μM 2OG, read-out: IC50 (inhibition of AspH)) it was ~0.3 µM and 0.3 µM; in test [5] (IC50 at 200 μM 2OG (ESI Table S1), assay concentration of 200 μM 2OG), 6.4 ± 0.4 µM; in test [5] (IC50 at 400 μM 2OG (ESI Table S1), assay concentration of 400 μM 2OG) it was 10 ± 3.1 µM; in test [5] (IC50 at 600 μM 2OG (ESI Table S1), assay concentration of 600 μM (0.6 mM) 2OG), 18.7 µM and ~18.7 µM. Besides, in test [3] (10 μM His6-AspH315-758, 150 μM hFX-CP101-119, 150 μM 2OG derivative, 50 μM FAS, pH 7.5, 25 °C), the “AspH-catalyzed oxidative decarboxylation of the 2OG derivative (NMR)” value is “undergoes slow AspH-catalyzed oxidative decarboxylation”. For the same compound, the “hydroxylation (conversion) of hFX-CP101-119 in the final reaction mixture by SPE-MS” value in test [3] (t = 15 h, 10 μM AspH, 150 μM cosubstrate) is ~ 95%. Besides, in test [6], the “substitution for 2OG in transamination reactions” value is recorded as “does not efficiently substitute for 2OG”. For the same compound, the “AspH-catalyzed substrate conversion (hydroxylation of hFX-CP101-119)” value at human AspH is recorded as less than 1%.

Source of the values: paper PMC8179049 (Chemical Science, 2020).
